Assays:
[1] = tested on: green rice leafhopper (Nephotettix cincticeps); assay: Nephotettix test; assay type: in vivo; settings: after 6 days; active compound concentration 0.1%; dipped rice seedlings
Procedure: [table] To produce a suitable preparation of active compound, 1 part by weight of active compound is mixed with the stated amount of solvent and the stated amount of emulsifier, and the concentrate is diluted with water to the desired concentration. Rice seedlings (Oryza sativa) are treated by being dipped into the preparation of active compound of the desired concentration and are infested with the green rice leafhopper (Nephotettix cincticeps) while the seedlings are still moist. After the specified period of time, the destruction in % is determined. 100% means that all the leafhoppers have been killed; 0% means that none of the leafhoppers have been killed.

[2] = tested on: caterpillars of the diamond-back moth (Plutella maculipennis); assay: Plutella test; assay type: in vivo; settings: after 7 days; active compound concentration 0.1%; dipped cabbage leaves
Procedure: (§1) [table] To produce a suitable preparation of active compound, 1 part by weight of active compound is mixed with the stated amount of solvent and the stated amount of emulsifier, and the concentrate is diluted with water to the desired concentration. Cabbage leaves (Brassica oleracea) are treated by being dipped into the preparation of active compound of the desired concentration and are infested with caterpillars of the diamond-back moth (Plutella maculipennis) while the leaves are still moist. After the specified period of time, the destruction in % is determined. 100% means that all the caterpillars have been killed; 0% means that none of the caterpillars have been killed.

[3] = tested on: green peach aphid (Myzus persicae); assay: Myzus test; assay type: in vivo; settings: after 6 days; active compound concentration 0.1%; dipped cabbage leaves
Procedure: as §1, with “oleracea) which are severely infested with the green peach aphid (Myzus persicae)” for “oleracea)”, “concentration.” for “concentration and are infested with caterpillars of the diamond-back moth (Plutella maculipennis) while the leaves are still moist.”, “aphids” for “caterpillars”

[4] = tested on: resistant Boophilus microplus, SP resistant Parkhurst strain; assay: Test with resistant Boophilus microplus / SP resistant Parkhurst strain; assay type: in vivo; settings: active compound concentration 20 μg/animal; injected into the abdomen
Procedure: [table] 20 mg of active compound are dissolved in 1 ml of dimethyl sulphoxide, and lesser concentrations are prepared by dilution with the same solvent. The test is carried out in 5 applications. 1 μl of the solutions is injected into the abdomen, and the animals are transferred into dishes and kept in a controlled-environment cabinet. The activity is determined via the inhibition of oviposition. 100% means that no tick has produced eggs.

fly larvae = assay: Test with fly larvae/development-inhibitory action; assay type: in vivo; settings: active compound concentration 1000 ppm
Procedure: [table] To produce a suitable formulation, 3 parts by weight of active compound are mixed with 7 parts of the abovementioned solvent/emulsifier mixture, and the resulting emulsion concentrate is diluted with water to the concentration desired in each case. For each concentration, 30 to 50 larvae are transferred to horsemeat (1 cm^3) located in glass tubes and 500 μl of the test dilution are pipetted onto the meat. The glass tubes are placed into plastic beakers whose bottom is covered with sea sand and kept in a control-environment cabinet (26° C.±1.5° C., 70% relative humidity±10%). The activity is checked after 24 hours and 48 hours (larvicidal action). After the larvae have left the glass tubes (approximately 72 hours), the tubes are removed, and perforated plastic lids are placed on the beakers. After 1½ times the development period (hatching of the control flies), the hatched flies and the pupae/puparia are counted. The criterion for the action is death in the treated larvae after 48 hours (larvicidal effect) or inhibition of adults hatching from the pupae or inhibition of pupation. The criterion for the in-vitro action of a substance is the inhibition of fly development or a standstill of development prior to the adult stage. 100% larvicidal activity means that all larvae have died after 48 hours. 100% development-inhibitory activity means that no adult flies have hatched.

[5] = tested on: caterpillars of the fall armyworm (Spodoptera frugiperda); assay: Spodoptera test; assay type: in vivo; settings: after 7 days; active compound concentration 0.1%; dipped cabbage leaves
Procedure: as §1, with “fall armyworm (Spodoptera frugiperda)” for “diamond-back moth (Plutella maculipennis)”

[6] = tested on: greenhouse red spider mite or two-spotted spider-mite (Tetranychus urticae); assay: Tetranychus test (OP-resistant/immersion treatment); assay type: in vivo; settings: after 13 days; active compound concentration 0.1%; immersion treatment of bean plants
Procedure: (§2) [table] To produce a suitable preparation of active compound, 1 part by weight of active compound is mixed with the stated amount of solvent and the stated amount of emulsifier, and the concentrate is diluted with water to the desired concentrations. Bean plants (Phaseolus vulgaris) which are severely infested with all development stages of the greenhouse red spider mite or two-spotted spider-mite (Tetranychus urticae) are immersed in a preparation of active compound of the desired concentration. After the specified period of time, the destruction in % is determined. 100% means that all the spider mites have been killed; 0% means that none of the spider mites have been killed.

test plants [7] = assay: Pre-emergence test/greenhouse; assay type: in vivo; settings: greenhouse, 250 g/ha, rated after three weeks vs untreated control, 0%=no action, 100%=total destruction
Procedure: [table] To produce a suitable preparation of active compound, 1 part by weight of active compound is mixed with the stated amount of solvent, the stated amount of emulsifier is added and the concentrate is diluted with water to the desired concentration. Seeds of the test plants are sown in normal soil and, after 24 hours, watered with the preparation of the active compound. It is expedient to keep constant the amount of water per unit area The concentration of the active compound in the preparation is of no importance, only the amount of active compound applied per unit area being decisive. After three weeks, the degree of damage to the plants is rated in % damage in comparison to the development of the untreated control. The figures denote: • 0%=no action (like untreated control) 100%=total destruction [table]

[8] = tested on: mustard beetle larvae (Phaedon cochleariae); assay: Phaedon larvae test; assay type: in vivo; settings: after 7 days; active compound concentration 0.1%; dipped cabbage leaves
Procedure: [table] To produce a suitable preparation of active compound, 1 part by weight of active compound is mixed with the stated amount of solvent and the stated amount of emulsifier, and the concentrate is diluted with water to the desired concentration. Cabbage leaves (Brassica oleracea) are treated by being dipped into the preparation of the active compound of the desired concentration and are infested with mustard beetle larvae (Phaedon cochleariae) while the leaves are still moist. After the specified period of time, the destruction in % is determined. 100% means that all the beetle larvae have been killed; 0% means that none of the beetle larvae have been killed.

[9] = tested on: greenhouse red spider mite or two-spotted spider-mite (Tetranychus urticae); assay: Tetranychus test (OP-resistant/spray treatment); assay type: in vivo; settings: after 7 days; active compound concentration 0.004%; spray treatment of bean plants
Procedure: as §2, with “sprayed with” for “immersed in”

test plants [10] = assay: Post-emergence test; assay type: in vivo; settings: post-emergence (footnote *); 250 g/ha; rated after three weeks vs untreated control; 0%=no action, 100%=total destruction

## Cc1cc(Cl)cc(Cl)c1C1=C(O)C(C)(C(C)C)NC1=O (stereo not shown) [Example I-1-a-1]
[1]
  destruction: 100%
[2]
  destruction: 100%
[3]
  destruction: 100%

## Cc1cc(Cl)cc(Cl)c1C1=C(OC(=O)C(C)C)C2(CCCC(C)C2)NC1=O (single isomer, unassigned) [Example I-1-b-3]
[4]
  activity (inhibition of oviposition): 100%
Fly larvae
  activity (larvicidal / development-inhibitory): 100%

## Cc1cc(Cl)cc(Cl)c1C1=C(OC(=O)c2ccccc2)C2(CCCC(C)C2)NC1=O (single isomer, unassigned) [Example I-1-b-5]
[5]
  destruction: 100%

## Cc1cc(Cl)cc(Cl)c1C1=C(O)C2(CCCCC2)OC1=O [Example I-2-a-1, 3-(2,4-dichloro-6-methyl-phenyl)-5-spirocyclohexyltetronic acid]
other
  melting point: > 240 °C

## CC(=O)OC1=C(c2c(C)cc(Cl)cc2Cl)C(=O)NC12CCCCC2 [Example I-1-b-7]
[6]
  activity (destruction): 100%
Test plants [7]
  degree of damage, Alopecurus myosuroides: 95%
  degree of damage, Avena fatua: 80%
  degree of damage, Beta vulgaris: 30%
  degree of damage, Setaria viridis: 100%
  degree of damage, Sinapis arvensis: 100%
[3]
  destruction: 100%
[8]
  destruction: 100%

## Cc1cc(Cl)cc(Cl)c1C1=C(O)C2(CCOCC2)NC1=O [Example I-1-a-5]
[4]
  activity (inhibition of oviposition): 100%
Fly larvae
  activity (larvicidal / development-inhibitory): 100%

## Cc1cc(Cl)c(C2=C(O)C3(CCCCC3)OC2=O)c(Cl)c1 [Example I-2-a-5]
[3]
  destruction: 100%

## Cc1cc(Cl)c(C2=C(O)C3(CCC(C)CC3)OC2=O)c(Cl)c1 (stereo not shown) [Example I-2-a-6]
[4]
  activity (inhibition of oviposition): 100%
Fly larvae
  activity (larvicidal / development-inhibitory): 100%
[3]
  destruction: 100%
[8]
  destruction: 100%

## Cc1cc(Cl)cc(Cl)c1C1=C(OC(=O)C(C)(C)C)C2(CCCCC2)OC1=O [Example I-2-b-1, 4-pivaloyl-oxy-3-(2,4-dichloro-6-methyl-phenyl)-5-spiro-cyclohexyl-tetronic acid]
other
  melting point: 137 °C
[9]
  activity (destruction): 100%

## Cc1cc(Cl)cc(Cl)c1-c1c(O)c(C)c(-c2ccccn2)oc1=O [Example I-5-a-1]
Test plants [10]
  degree of damage, Alopecurus myosuroides: 80%
  degree of damage, Beta vulgaris: 0%
Test plants [7]
  degree of damage, Alopecurus myosuroides: 80%
  degree of damage, Beta vulgaris: 0%

From patent US6858741B2, “Alkyl-dihalogenated phenyl-substituted ketoenols useful as pesticides and herbicides” (Bayer Aktiengesellschaft, priority 1995, dated 2005)
